Measured values taken from PubChem BioAssay AID1963986 (Molecular Pharmacology Branch, DTP, NCI, 2024).
Several values for one entry are separate records, joined by “and”; a condition that tells them apart may be missing. Equal entries are not always repeated.

Tested on: 171881-019-R-J1-PDC tumor spheroid viability
Assay: Anticancer human tumor 171881-019-R-J1-PDC patient-derived invasive breast carcinoma cell line growth inhibition [PI3K]
Details: spheroids with HUVEC and MSC; for viability, T/C: stronger effect = lower value
How it was run: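 We assembled tumor spheroids that included a stromal compartment of HUVEC and MSCs, then exposed them to targeted agents alone and together with PI3K pathway inhibitors. Concentration series descended by half-log from clinically achievable Cmax levels. Viability served as the endpoint.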

[1] = curve of first compound, second compound 0.0316 µM
[2] = curve of first compound, second compound 0.1 µM
[3] = curve of first compound, second compound 0.316 µM
[4] = curve of first compound, second compound 1 µM
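Note: spheroids exposed to compound for 7 days before viability read.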
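Throughout, for viability, T/C: 100% = DMSO vehicle-treated spheroids.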

For `Cn1cnc2c(F)c(Nc3ccc(Br)cc3Cl)c(C(=O)NOCCO)cc21` + Cc1nc(NC(=O)N2CCCC2C(N)=O)sc1-c1ccnc(C(C)(C)C(F)(F)F)c1, the IC50 [1] was 437 nM, the IC50 [2] was 105 nM and the IC50 [3] was < 9.49 nM. For the same compound, the IC50 [4] was < 9.49 nM, the IC50 (curve of first compound, second compound 3.16 µM) was < 9.49 nM and the IC50 (curve of first compound, second compound 10 µM) was < 9.49 nM. It also gave a viability, T/C (second compound 0.0316 µM, first compound 0.00949 µM) of 92.1%, a viability, T/C (second compound 0.0316 µM, first compound 0.03 µM) of 78.9% and a viability, T/C (second compound 0.0316 µM, first compound 0.0949 µM) of 71.5%. It also gave a viability, T/C (second compound 0.0316 µM, first compound 0.3 µM) of 58.5%, a viability, T/C (second compound 0.0316 µM, first compound 0.949 µM) of 35.9% and a viability, T/C (second compound 0.0316 µM, first compound 3 µM) of 16%. The viability, T/C (second compound 0.1 µM, first compound 0.00949 µM) was 73.9%, the viability, T/C (second compound 0.1 µM, first compound 0.03 µM) was 59% and the viability, T/C (second compound 0.1 µM, first compound 0.0949 µM) was 50.3%. The viability, T/C (second compound 0.1 µM, first compound 0.3 µM) was 41.8%, the viability, T/C (second compound 0.1 µM, first compound 0.949 µM) was 26.8% and the viability, T/C (second compound 0.1 µM, first compound 3 µM) was 12.4%. For the same compound, the viability, T/C (second compound 0.316 µM, first compound 0.00949 µM) was 45.7%, the viability, T/C (second compound 0.316 µM, first compound 0.03 µM) was 38.8% and the viability, T/C (second compound 0.316 µM, first compound 0.0949 µM) was 33.3%. For the same compound, the viability, T/C (second compound 0.316 µM, first compound 0.3 µM) was 28.6%, the viability, T/C (second compound 0.316 µM, first compound 0.949 µM) was 15.1% and the viability, T/C (second compound 0.316 µM, first compound 3 µM) was 5.7%. The viability, T/C (second compound 1 µM, first compound 0.00949 µM) was 28.8%, the viability, T/C (second compound 1 µM, first compound 0.03 µM) was 23.3% and the viability, T/C (second compound 1 µM, first compound 0.0949 µM) was 19.9%. For the same compound, the viability, T/C (second compound 1 µM, first compound 0.3 µM) was 15.1%, the viability, T/C (second compound 1 µM, first compound 0.949 µM) was 6.73% and the viability, T/C (second compound 1 µM, first compound 3 µM) was 2.34%. For the same compound, the viability, T/C (second compound 3.16 µM, first compound 0.00949 µM) was 11.5%, the viability, T/C (second compound 3.16 µM, first compound 0.03 µM) was 9.26% and the viability, T/C (second compound 3.16 µM, first compound 0.0949 µM) was 7.86%. For the same compound, the viability, T/C (second compound 3.16 µM, first compound 0.3 µM) was 5.01%, the viability, T/C (second compound 3.16 µM, first compound 0.949 µM) was 1.92% and the viability, T/C (second compound 3.16 µM, first compound 3 µM) was 0.87%. For the same compound, the viability, T/C (second compound 10 µM, first compound 0.00949 µM) was 2.26%, the viability, T/C (second compound 10 µM, first compound 0.03 µM) was 2.27% and the viability, T/C (second compound 10 µM, first compound 0.0949 µM) was 1.71%. For the same compound, the viability, T/C (second compound 10 µM, first compound 0.3 µM) was 0.92%, the viability, T/C (second compound 10 µM, first compound 0.949 µM) was 0.78% and the viability, T/C (second compound 10 µM, first compound 3 µM) was 0.48%.
In the case of `CNC(=O)c1ccc(N2C(=S)N(c3ccc(C#N)c(C(F)(F)F)c3)C(=O)C2(C)C)cc1F` + CC(Nc1ccc2c(c1)OCCn1cc(N3C(=O)OCC3C(F)F)nc1-2)C(N)=O, the IC50 (curve of first compound, second compound 0.00316 µM) is reported as > 10000 nM, the IC50 (curve of first compound, second compound 0.01 µM) is reported as > 10000 nM and the IC50 [1] is reported as 3830 nM. The IC50 [2] was < 31.6 nM, the IC50 [3] was < 31.6 nM and the IC50 [4] was < 31.6 nM. For the same compound, the viability, T/C (second compound 0.00316 µM, first compound 0.0316 µM) was 82.6%, the viability, T/C (second compound 0.00316 µM, first compound 0.1 µM) was 88% and the viability, T/C (second compound 0.00316 µM, first compound 0.316 µM) was 82.4%. The viability, T/C (second compound 0.00316 µM, first compound 1 µM) was 93.6%, the viability, T/C (second compound 0.00316 µM, first compound 3.16 µM) was 81% and the viability, T/C (second compound 0.00316 µM, first compound 10 µM) was 69.5%. For the same compound, the viability, T/C (second compound 0.01 µM, first compound 0.0316 µM) was 75.1%, the viability, T/C (second compound 0.01 µM, first compound 0.1 µM) was 73.8% and the viability, T/C (second compound 0.01 µM, first compound 0.316 µM) was 77%. For the same compound, the viability, T/C (second compound 0.01 µM, first compound 1 µM) was 74.5%, the viability, T/C (second compound 0.01 µM, first compound 3.16 µM) was 78.3% and the viability, T/C (second compound 0.01 µM, first compound 10 µM) was 62.3%. For the same compound, the viability, T/C (second compound 0.0316 µM, first compound 0.0316 µM) was 55.2%, the viability, T/C (second compound 0.0316 µM, first compound 0.1 µM) was 56.7% and the viability, T/C (second compound 0.0316 µM, first compound 0.316 µM) was 57%. The viability, T/C (second compound 0.0316 µM, first compound 1 µM) was 56.6%, the viability, T/C (second compound 0.0316 µM, first compound 3.16 µM) was 53.1% and the viability, T/C (second compound 0.0316 µM, first compound 10 µM) was 33.8%. It also gave a viability, T/C (second compound 0.1 µM, first compound 0.0316 µM) of 39.1%, a viability, T/C (second compound 0.1 µM, first compound 0.1 µM) of 41.5% and a viability, T/C (second compound 0.1 µM, first compound 0.316 µM) of 38.1%. For the same compound, the viability, T/C (second compound 0.1 µM, first compound 1 µM) was 39.9%, the viability, T/C (second compound 0.1 µM, first compound 3.16 µM) was 38% and the viability, T/C (second compound 0.1 µM, first compound 10 µM) was 30.5%. The viability, T/C (second compound 0.316 µM, first compound 0.0316 µM) was 28.2%, the viability, T/C (second compound 0.316 µM, first compound 0.1 µM) was 27.9% and the viability, T/C (second compound 0.316 µM, first compound 0.316 µM) was 25.2%. For the same compound, the viability, T/C (second compound 0.316 µM, first compound 1 µM) was 28.5%, the viability, T/C (second compound 0.316 µM, first compound 3.16 µM) was 24.8% and the viability, T/C (second compound 0.316 µM, first compound 10 µM) was 22.1%. It also gave a viability, T/C (second compound 1 µM, first compound 0.0316 µM) of 20.8%, a viability, T/C (second compound 1 µM, first compound 0.1 µM) of 21.3% and a viability, T/C (second compound 1 µM, first compound 0.316 µM) of 24.9%. It also gave a viability, T/C (second compound 1 µM, first compound 1 µM) of 18.5%, a viability, T/C (second compound 1 µM, first compound 3.16 µM) of 20.1% and a viability, T/C (second compound 1 µM, first compound 10 µM) of 18.7%.
In the case of `CC1(C)CCC(Nc2ncc(C(F)(F)F)c(-c3c[nH]c4c(P(C)(C)=O)c(C#N)ccc34)n2)CN1` (stereo not given), the viability, T/C (compound 0.0316 µM) is reported as 72.4% [middle of 4 runs], the viability, T/C (compound 0.1 µM) is reported as 70.7% [middle of 4 runs] and the viability, T/C (compound 0.316 µM) is reported as 78.8% [middle of 4 runs]. The viability, T/C (compound 1 µM) was 82.7% [middle of 4 runs], the viability, T/C (compound 3.16 µM) was 86.8% [middle of 4 runs] and the viability, T/C (compound 10 µM) was 24% [middle of 4 runs]. The IC50 (curve of compound) was 5.87 µM [middle of 4 runs].
`CC(Nc1ccc2c(c1)OCCn1cc(N3C(=O)OCC3C(F)F)nc1-2)C(N)=O` (stereo not given) was tested, and the viability, T/C (compound 0.00316 µM) was 94.1% [middle of 8 runs], the viability, T/C (compound 0.01 µM) was 83.8% [middle of 8 runs] and the viability, T/C (compound 0.0316 µM) was 56.6% [middle of 8 runs]. The viability, T/C (compound 0.1 µM) was 40.9% [middle of 8 runs], the viability, T/C (compound 0.316 µM) was 28% [middle of 8 runs] and the viability, T/C (compound 1 µM) was 21.4% [middle of 8 runs]. The IC50 (compound alone, run of 05/08/2023) was 52.5 nM [middle of 8 runs].
With `Cn1nccc1Nc1nccc(-c2ccn(C(CO)c3ccc(Cl)c(F)c3)c(=O)c2)n1` (stereo not given) the viability, T/C (compound 0.0316 µM) was 93.8% [middle of 4 runs], the viability, T/C (compound 0.1 µM) was 84.3% [middle of 4 runs] and the viability, T/C (compound 0.316 µM) was 57.5% [middle of 4 runs]. For the same compound, the viability, T/C (compound 1 µM) was 37.7% [middle of 4 runs], the viability, T/C (compound 3.16 µM) was 26.1% [middle of 4 runs] and the viability, T/C (compound 10 µM) was 20.1% and 21.8% and 21.4% (2×). For the same compound, the IC50 (curve of compound) was 502 nM [middle of 4 runs].
